# Results as given in the supplement of paper PMC11061612.
# Key:
# [1] = tested on: COR-L88 (Small Cell Lung Carcinoma); assay: Bliss excess, mean over the matrix (fraction); higher = more synergy
# Summary of the method: (§1)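 Bliss excess equals the observed combination effect minus the expected value EA + EB − EA·EB, where EA and EB are the effects of each agent alone. Combination Emax is the second-highest inhibition within the matrix. Inhibition was scaled from CellTiter-Glo 2.0 luminescence, with 0 set by vehicle wells and 1 by blank wells, after 72 hours of two-drug dosing of cells plated in 1536-well plates.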
# GAK (Melanoma) = assay: as above
# Summary of the method: as §1
# [2] = tested on: HT-1080 (Other Solid Carcinomas); assay: as above
# Summary of the method: as §1
# [3] = tested on: IA-LM (Non-Small Cell Lung Carcinoma); assay: as above
# Summary of the method: as §1
# IST-MEL1 (Melanoma) = assay: as above
# Summary of the method: as §1
# [4] = tested on: KP-4 (Pancreatic Carcinoma); assay: as above
# Summary of the method: as §1
# [5] = tested on: MM1S (Plasma Cell Myeloma); assay: as above
# Summary of the method: as §1
# [6] = tested on: MOLT-13 (T-Lymphoblastic Leukemia); assay: as above
# Summary of the method: as §1
# [7] = tested on: MS-1 (Small Cell Lung Carcinoma); assay: as above
# Summary of the method: as §1
# NB1 (Neuroblastoma) = assay: as above
# Summary of the method: as §1
# [8] = tested on: NCI-H1341 (Small Cell Lung Carcinoma); assay: as above
# Summary of the method: as §1
# [9] = tested on: NMC-G1 (Low Grade Glioma); assay: as above
# Summary of the method: as §1
# [10] = tested on: Raji (Burkitt's Lymphoma); assay: as above
# Summary of the method: as §1
# [11] = tested on: SK-CO-1 (Colorectal Carcinoma); assay: as above
# Summary of the method: as §1
# [12] = tested on: SNU-407 (Colorectal Carcinoma); assay: as above
# Summary of the method: as §1
# [13] = tested on: SNU-423 (Hepatocellular Carcinoma); assay: as above
# Summary of the method: as §1
# UACC-257 (Melanoma) = assay: as above
# Summary of the method: as §1
# [14] = tested on: BxPC-3 (Pancreatic Carcinoma); assay: combination Emax (second highest fraction inhibited in the dose matrix, 72 h); higher = more inhibition; extreme values may be limits of the assay
# Summary of the method: as §1
# [15] = tested on: NCI-H1876 (Small Cell Lung Carcinoma); assay: as above
# Summary of the method: as §1
# [16] = tested on: SNU-407 (Colorectal Carcinoma); assay: as above
# Summary of the method: as §1
Compound,Bliss excess [1],Bliss excess (GAK (Melanoma)),Bliss excess [2],Bliss excess [3],Bliss excess (IST-MEL1 (Melanoma)),Bliss excess [4],Bliss excess [5],Bliss excess [6],Bliss excess [7],Bliss excess (NB1 (Neuroblastoma)),Bliss excess [8],Bliss excess [9],Bliss excess [10],Bliss excess [11],Bliss excess [12],Bliss excess [13],Bliss excess (UACC-257 (Melanoma)),combination Emax [14],combination Emax [15],combination Emax [16]
"Cc1cc2ncnn2cc1Nc1ncc2c(n1)n(C1CCOCC1)c(=O)n2C [AZD7648] + C=CCn1c(=O)c2cnc(Nc3ccc(N4CCN(C)CC4)cc3)nc2n1-c1cccc(C(C)(C)O)n1 [AZD1775] (first compound max 10 µM, partner max 1 µM)",-0.0543,-0.0275,0.0591,-0.0108,-0.011,0.0217,-0.0401,0.0144,-0.0401,-0.0015,-0.0476,0.0106,-0.0359,-0.0846,0.0134,-0.0257,0.0334,0.428,0.976,0.446
"CC1(C)CCC(CN2CCN(c3ccc(C(=O)NS(=O)(=O)c4ccc(NCC5CCOCC5)c([N+](=O)[O-])c4)c(Oc4cnc5[nH]ccc5c4)c3)CC2)=C(c2ccc(Cl)cc2)C1 [Venetoclax] + Cn1cnc2c(F)c(Nc3ccc(Br)cc3Cl)c(C(=O)NOCCO)cc21 [Selumetinib] (first compound max 1 µM, 7x7, partner max 3 µM)",0.0341,0.0238,-0.0351,-0.0248,-0.0654,-0.0521,0.0456,0.241,-0.0273,-0.0466,0.0847,-0.0531,-0.003,0.001,-0.0275,-0.11,-0.0487,0.323,0.205,0.504
"CN(CCO)CC[C@H](CSc1ccccc1)Nc1ccc(S(=O)(=O)NC(=O)c2ccc(N3CCC([C@@H](O)c4ccccc4-c4ccc(Cl)cc4)CC3)cc2)cc1S(=O)(=O)C(F)(F)F [AZD4320] + C[C@@H](Nc1cc(F)cc(F)c1)c1cc(C(=O)N(C)C)cc2c(=O)cc(N3CCOCC3)oc12 [AZD8186] (first compound max 1 µM, 7x7, partner max 3 µM)",0.008,-0.0727,-0.0232,0.0085,0.0237,0.0087,0.0538,0.0093,0.0115,-0.0033,0.0517,0.0254,0.0133,-0.051,-0.0167,-0.0628,0.0488,0.252,1,0.311
"Cc1c2c(nn1C)CSCc1cc(n(C)n1)CSc1cc(c3ccccc3c1)OCCCc1c(C(=O)O)n(C)c3c-2c(Cl)ccc13 [AZD5991] + CC1(C)CCC(CN2CCN(c3ccc(C(=O)NS(=O)(=O)c4ccc(NCC5CCOCC5)c([N+](=O)[O-])c4)c(Oc4cnc5[nH]ccc5c4)c3)CC2)=C(c2ccc(Cl)cc2)C1 [Venetoclax] (first compound max 1 µM, 7x7, partner max 1 µM)",0.136,0.0208,-0.0353,-0.007,0.009,-0.0563,0.0483,0.0266,0.0089,-0.0178,0.132,-0.03,0.0287,-0.0378,0.0014,-0.0736,-0.0485,0.334,0.881,0.717
"COc1cccc(OCCCN)c1-c1cc(Nc2cnc(C#N)cn2)n[nH]1 [Prexasertib] + CN(C)CCCOc1ccc(-c2ccc3ncc4c(c3c2)n(C2CCOCC2)c(=O)n4C)cn1 [AZD0156] (first compound max 1 µM, 7x7, partner max 1 µM)",-0.0137,0.0668,0.0241,-0.0364,-0.05,0,-0.0718,0.0118,0.0205,0.142,-0.032,-0.0134,-0.0105,-0.0341,-0.0146,-0.0711,0.0044,0.66,0.968,0.653
"COc1cc2c(cc1OCCCCCOc1cc3c(cc1OC)C(=O)N1C=C(C)C[C@H]1C=N3)N=C[C@@H]1CC(C)=CN1C2=O [SG3199] + O=C(c1cc(Cc2n[nH]c(=O)c3ccccc23)ccc1F)N1CCN(C(=O)C2CC2)CC1 [Olaparib] (first compound max 0.001 µM, 7x7, partner max 10 µM)",-0.0133,-0.0238,-0.02,-0.0401,-0.0196,-0.0366,0.0663,0.018,0.0418,-0.0418,-0.0059,-0.0625,0.0002,-0.0444,-0.0378,-0.0238,-0.0419,0.101,0.7,0.182
"Cc1cc2ncnn2cc1Nc1ncc2c(n1)n(C1CCOCC1)c(=O)n2C [AZD7648] + C[C@@H]1COCCN1C2=NC(=NC(=C2)C3(CC3)[S@](=N)(=O)C)C4=C5C=CNC5=NC=C4 [AZD6738] (first compound max 10 µM, 7x7, partner max 10 µM)",0.0291,0.0104,-0.0459,0.0867,-0.0172,0.0727,0.014,-0.0154,-0.0266,0.0428,-0.0087,0.0004,0.0011,0.0003,-0.0207,0.0426,0.0075,0.36,0.809,0.663
"CN(CCO)CC[C@H](CSc1ccccc1)Nc1ccc(S(=O)(=O)NC(=O)c2ccc(N3CCC([C@@H](O)c4ccccc4-c4ccc(Cl)cc4)CC3)cc2)cc1S(=O)(=O)C(F)(F)F [AZD4320] + CCN(CCO)CCCOc1ccc2c(Nc3cc(CC(=O)Nc4cccc(F)c4)[nH]n3)ncnc2c1 [AZD2811] (first compound max 1 µM, 7x7, partner max 1 µM)",0.0591,-0.0032,-0.0046,0.0119,0.0445,-0.021,0.118,-0.0204,0.0349,0.0994,0.0422,0.0047,0.0111,0.0178,-0.102,-0.0325,-0.0022,0.236,0.998,0.411
"C=CCn1c(=O)c2cnc(Nc3ccc(N4CCN(C)CC4)cc3)nc2n1-c1cccc(C(C)(C)O)n1 [AZD1775] + O=C(c1cc(Cc2n[nH]c(=O)c3ccccc23)ccc1F)N1CCN(C(=O)C2CC2)CC1 [Olaparib] (first compound max 1 µM, partner max 10 µM)",-0.0925,-0.0243,-0.0327,-0.0513,-0.0596,-0.0373,-0.0321,0.021,-0.0094,-0.0795,-0.0236,-0.0352,-0.016,-0.0858,-0.0364,-0.0577,-0.0197,0.511,0.968,0.465
"CN(CCO)CC[C@H](CSc1ccccc1)Nc1ccc(S(=O)(=O)NC(=O)c2ccc(N3CCC([C@@H](O)c4ccccc4-c4ccc(Cl)cc4)CC3)cc2)cc1S(=O)(=O)C(F)(F)F [AZD4320] + C=CCn1c(=O)c2cnc(Nc3ccc(N4CCN(C)CC4)cc3)nc2n1-c1cccc(C(C)(C)O)n1 [AZD1775] (first compound max 1 µM, partner max 1 µM)",0.0578,-0.0536,-0.0354,0.0161,0.0339,-0.0187,0.0981,0.064,0.112,0.0014,0.0676,0.0422,-0.0028,-0.0412,-0.0677,-0.0129,-0.0419,0.776,1,0.415
"Cc1c2c(nn1C)CSCc1cc(n(C)n1)CSc1cc(c3ccccc3c1)OCCCc1c(C(=O)O)n(C)c3c-2c(Cl)ccc13 [AZD5991] + Cn1cnc2c(F)c(Nc3ccc(Br)cc3Cl)c(C(=O)NOCCO)cc21 [Selumetinib] (first compound max 1 µM, 7x7, partner max 3 µM)",-0.0114,-0.0093,0.0108,-0.0299,–,-0.0165,0.0828,0.0203,-0.0362,-0.0181,0.0693,-0.0243,0.0082,-0.0218,0.0342,-0.0599,0.0215,0.483,0.748,0.789
"CC1(C)CCC(CN2CCN(c3ccc(C(=O)NS(=O)(=O)c4ccc(NCC5CCOCC5)c([N+](=O)[O-])c4)c(Oc4cnc5[nH]ccc5c4)c3)CC2)=C(c2ccc(Cl)cc2)C1 [Venetoclax] + CCN(CCO)CCCOc1ccc2c(Nc3cc(CC(=O)Nc4cccc(F)c4)[nH]n3)ncnc2c1 [AZD2811] (first compound max 1 µM, 7x7, partner max 1 µM)",0.053,-0.0537,-0.0407,-0.053,0.0278,-0.0338,0.0157,0.055,-0.045,-0.0139,0.0606,-0.0253,-0.016,0.0082,-0.036,-0.0381,-0.0105,0.365,0.742,0.485
"COc1cccc(OCCCN)c1-c1cc(Nc2cnc(C#N)cn2)n[nH]1 [Prexasertib] + C=CCn1c(=O)c2cnc(Nc3ccc(N4CCN(C)CC4)cc3)nc2n1-c1cccc(C(C)(C)O)n1 [AZD1775] (first compound max 1 µM, partner max 1 µM)",0.0538,0.0832,0.0643,0.0573,0.0406,0.0861,0.0356,0.0981,0.0972,0.0693,0.13,-0.0285,0.0907,0.0582,0.0807,0.128,0.0714,0.76,1,0.784
"CCc1c2c(nc3ccc(O)cc13)-c1cc3c(c(=O)n1C2)COC(=O)[C@]3(O)CC [SN-38] + O=C(c1cc(Cc2n[nH]c(=O)c3ccccc23)ccc1F)N1CCN(C(=O)C2CC2)CC1 [Olaparib] (first compound max 0.3 µM, 7x7, partner max 10 µM)",0.0785,0.0227,0.0978,0.053,0.0125,0.0777,–,0.0811,0.0551,–,0.0698,-0.0071,0.0342,0.0147,–,-0.0025,0.0213,0.59,–,–
